Source: patent US12162861B2, “Dopamine D3 receptor selective antagonists/partial agonists; method of making; and use thereof” (THE UNITED STATES OF AMERICA, AS REPRESENTED BY THE …, priority 2016, dated 2024)
“Also recorded” adds a separate entry of the source.

Legend:
[1] = Phase I metabolic stability in monkey liver microsomes; format: in vitro ADME, rhesus monkey; conditions: FIG. 1; 10 μM, 0.5 mg/mL microsomes
Description: Methods: Phase I metabolic stability assay was conducted in rat and rhesus monkey liver microsomes. For phase I metabolism, the reaction was carried out with 100 mM potassium phosphate buffer, pH 7.4, in the presence of NADPH regenerating system (1.3 mM NADPH, 3.3 mM glucose 6-phosphate, 3.3 mM MgCl2, 0.4 U/mL glucose-6-phosphate dehydrogenase, 50 μM sodium citrate). Reactions in triplicate were initiated by addition of the liver microsomes to the incubation mixture (compound final concentration was 10 μM; 0.5 mg/mL microsomes). Negative controls in the absence of cofactors were carried out to determine the specific cofactor-free degradation. Compound disappearance was monitored via LC/MS/MS. Chromatographic analysis was performed using an Accela™ ultra high-performance system consisting of an analytical pump, and an autosampler coupled with TSQ Vantage mass spectrometer (Thermo Fisher Scientific Inc., Waltham MA). […] The mobile phase used was composed of 0.1% Formic Acid in Acetonitrile and 0.1% Formic Acid in H2O with gradient elution, starting with 10% (organic) linearly increasing to 99% up to 2 min, maintaining at 99% (2-2.5 min) and re-equilibrating to 10% by 2.7 min. The total run time for each analyte was 5.0 min.

rats = test: Naloxone-precipitated conditioned place aversion in chronic oxycodone treated rats; format: in vivo, rat; conditions: chronic oxycodone-treated rats, 5, 15 mg/kg, 1 hour prior to naloxone, FIG. 6
Description: The place-conditioning apparatus (Med Associates, St Albans, VT) consisted of two compartments (21×28 cm^2) linked by a gray connecting area (21×12.5 cm^2); a sliding door separated each compartment from the connecting area. The two end compartments differed in wall color (black vs white), floor type (grid vs net), and illumination; preference for the end compartments was balanced by using weaker illumination in the reflective (and normally less-preferred) white compartment and stronger illumination in the non-reflective black compartment. The paradigm was further ‘balanced’ by associating the training injections with the white side in half the animals and with the black side in the remaining animals.
The CPA procedures in this study were similar to those described by others (Azar et al., 2003; Olmstead and Burns 2005; 2012). Briefly, one day before drug treatments started, rats (200-250 g) were randomly divided into 6 groups and were allowed to explore their assigned conditioning apparatus for 15 min (preconditioning). […] CPA score was calculated as animals' time spent in drug-paired minus saline-paired compartments, Oxycodone HCl and naloxone HCl were purchased from Sigma Chemical Co. (Saint Louis, MO, USA) and were dissolved in physiological saline.

C57BL/6J mice = conditions: listed as (±)-29
Description: Twenty-four male mice (22-25 g) with a C57BL/6J genetic background were purchased from the Charles River Laboratories (Raleigh, NC).
Locomotor activity tests were conducted in open-field chambers (43×43×30 cm^3) (Accuscan Instruments, Inc., Columbus, OH, USA). […] On habituation days, the animals were moved to the test room, acclimated there for 10 min, and then placed in their assigned locomotor chambers. […] Then 15 min later, the animals were placed into the test chambers. Their locomotor activities were recorded every 20 min for 2 h using VersaMax version 3.0 software (Accuscan Instruments, Inc.). […] The locomotor activities were recorded for 2 h/day after each oxycodone injection. The locomotor behavioral data are expressed as means (±SEM). […] Posthoc Fisher's least significant difference was used for multiple comparisons. p<0.05 was considered statistically significant.

squirrel monkeys = test: Food self-administration in squirrel monkeys; format: in vivo, squirrel monkey (Saimiri sciureus); conditions: squirrel monkeys, 1, 3, and 10 mg/kg i.m., FIG. 8
Description: Subjects: Seven adult male squirrel monkeys (Saimiri sciureus) weighing 0.8 to 1.1 kg were housed in individual cages in a temperature- and humidity-controlled room with unrestricted access to water. […] The monkeys were trained to self-administer either THC or food pellets prior to the study. Monkeys were fed (approximately two hours after the session) a daily food ration consisting of biscuits of high protein monkey diet (Lab Diet 5045, PMI Nutrition International, Richmond, Indiana). The number of biscuits (8-14) was determined for each monkey individually to maintain their body weights at a constant level throughout the study. Monkeys self-administering food pellets had the number of biscuits adjusted to maintain the motivation to perform a food-reinforced task. Fresh fruits, vegetables and environmental enrichment were provided daily. […]
Data analysis: The number of reinforcements (injections or pellets) per session represents total number of injections delivered during each 1-hour session. The rates of responding are expressed as responses per second averaged over the 1 h session, with time and responding during time-outs not included in calculations. Data are expressed as mean response rates and numbers of reinforcements per session ±SEM. […]

CCc1cc(Cl)c(OC)c(N2CCN(CC(O)CCNC(=O)c3cc4ccccc4[nH]3)CC2)c1 (racemic) [Compound 29, N-(4-(4-(3-chloro-5-ethyl-2-methoxyphenyl)piperazin-1-yl)-3-hydroxybutyl)-1H-indole-2-carboxamide]
metabolic stability in monkey liver microsomes versus PG648 [1]: improved metabolic stability as compared to Compound 1; also recorded: surprisingly high metabolic stability
naloxone-precipitated conditioned place aversion (rats): inhibits naloxone-precipitated conditioned place aversion; also recorded: significantly attenuated naloxone-precipitated conditioned place aversion
naloxone-precipitated conditioned place aversion (rats; listed as (±)-29): inhibition of naloxone-precipitated conditioned place aversion
acute oxycodone-induced hyperactivity (C57BL/6J mice; mice, 5, 15 mg/kg ip 15 min before oxycodone 4 mg/kg, day 2): dose-dependently inhibited oxycodone-induced hyperactivity
oxycodone prime-induced locomotor sensitization after 2 days of withdrawal (C57BL/6J mice; mice, day 9, oxycodone 4 mg/kg challenge without pretreatment): long-lasting inhibition in oxycodone-induced increases in locomotion
food self-administration (squirrel monkeys): has no effect on food self-administration; also recorded: without affecting food self-administration
food self-administration (squirrel monkeys; listed as (±)-29): no effect on food self-administration
